Test results from patent US20240382494A1, “THERAPEUTIC COMPOUNDS” (priority 2023, published 2024).
Read-outs that look alike come from different tables or passages of the source.

What was measured:
[1] = target: SARS-CoV-2 PLpro (Severe acute respiratory syndrome coronavirus 2, UniProt P0DTD1); experiment: FRET-based PLpro enzymatic assay; assay type: biochemical
Method: The SARS-CoV-2 PL^pro enzymatic assays were carried out as follows. The assay was assembled in 96-well plates with 100 μl of 200 nM PL^Pro protein in PL^Pro reaction buffer [50 mM Hepes (pH 7.5), 0.01% Triton X-100, and 5 mM DTT]. Then, 1 μl of testing compound at various concentrations was added to each well and incubated at 30° C. for 30 minutes. The enzymatic reaction was initiated by adding 1 μl of 1 mM FRET substrate (the final substrate concentration is 10 μM). The reaction was monitored in a Cytation 5 image reader with filters for excitation at 360/40 nm and emission at 460/40 nm at 30° C. for 1 hour. The initial velocity of the enzymatic reaction with and without testing compounds was calculated by linear regression for the first 15 minutes of the kinetic progress curve. The IC50 values were calculated by plotting the initial velocity against various concentrations of testing compounds with a dose-response function in Prism 8 software.

[2] = Cytotoxicity assay in Vero E6 cells (neutral red uptake); assay type: cell-based; conditions: African green monkey
Method: Briefly, 80.000 cells/ml of the tested cell lines were dispensed into 96-well cell culture plates at 100 μl per well Twenty-four hours later, the growth medium was removed and washed with 150 μl of PBS buffer. Two hundred microliters of fresh serum-free medium containing serial diluted compounds was added to each well. After incubating for 2 days at 37° C., the medium was removed and replaced with 100 μl of DMEM medium containing neutral red (40 μg/ml) and incubated for 2 to 4 hours at 37° C. The amount of neutral red taken up was determined by measuring the absorbance at 540 nm using a Multiskan FC Microplate Photometer (Thermo Fisher Scientific) The CC50 values were calculated from best-fit dose-response curves with variable slope in Prism 8.

[3] = 200 nM PLpro, 10 μM FRET substrate, 30 min preincubation at 30° C., read-out: IC50
[4] = Vero E6 cells, 2 days at 37° C., neutral red uptake, read-out: Vero CC50

## CCn1ccc(-c2cc([C@@H](C)NC(=O)c3cc(N4CCN(C)[C@H](C)C4)ccc3C)c3ccccc3n2)n1 [Example 104, 5-((R)-3,4-dimethylpiperazin-1-yl)-N—((R)-1-(2-(1-ethyl-1H-pyrazol-3-yl)quinolin-4-yl)ethyl)-2-methylbenzamide]
[1]; [3]
  IC50: < 0.5 µM
[2]; [4]
  CC50 at 2 days: 30.5 ± 2.21 µM

## Cc1ccc(OCCN(C)C)cc1C(=O)N[C@H](C)c1cc(-c2cnn(CC(F)(F)F)c2)nc2ccccc12 [Example 10, (R)-5-(2-(dimethylamino)ethoxy)-2-methyl-N-(1-(2-(1-(2,2,2-trifluoroethyl)-1H-pyrazol-4-yl)quinolin-4-yl)ethyl)benzamide]
[1]; [3]
  IC50: < 0.5 µM
[2]; [4]
  CC50 at 2 days: 60.8 ± 14.1 µM

## Cc1ccc(N2CCN(C)[C@H](C)C2)cc1C(=O)N[C@H](C)c1cc(-c2ccn(C)n2)nc2ccccc12 [Example 99, 5-((R)-3,4-dimethylpiperazin-1-yl)-2-methyl-N—((R)-1-(2-(1-methyl-1H-pyrazol-3-yl)quinolin-4-yl)ethyl)benzamide]
[1]; [3]
  IC50: < 0.5 µM
[2]; [4]
  CC50 at 2 days: 24.3 ± 2.62 µM

## Cc1ccc(OCCN(C)C)cc1C(=O)N[C@H](C)c1cc(-c2ccc(N3CCN(C)CC3)s2)nc2ccccc12 [Example 48, (R)-5-(2-(dimethylamino)ethoxy)-2-methyl-N-(1-(2-(5-(4-methylpiperazin-1-yl)thiophen-2-yl)quinolin-4-yl)ethyl)benzamide]
[1]; [3]
  IC50: < 0.5 µM
[2]; [4]
  CC50 at 2 days: 15.4 ± 7.94 µM

## Cc1ccc(N2CCN(C)CC2)cc1C(=O)N[C@H](C)c1cc(-c2ccco2)nc2ccccc12 [Example 74, (R)—N-(1-(2-(furan-2-yl)quinolin-4-yl)ethyl)-2-methyl-5-(4-methylpiperazin-1-yl)benzamide]
[1]; [3]
  IC50: < 0.5 µM
[2]; [4]
  CC50 at 2 days: 19.5 ± 1.13 µM

## Cc1ccc(N2C[C@H]3CN(C)C[C@H]3C2)cc1C(=O)N[C@H](C)c1cc(-c2ccn(C)n2)nc2ccccc12 [Example 103, 2-methyl-N—((R)-1-(2-(1-methyl-1H-pyrazol-3-yl)quinolin-4-yl)ethyl)-5-((3aR,6aS)-5-methylhexahydropyrrolo[3,4-c]pyrrol-2(1H)-yl)benzamide]
[1]; [3]
  IC50: < 0.5 µM
[2]; [4]
  CC50 at 2 days: 27.3 ± 1.74 µM

## COCCn1cc(-c2cc([C@H](C)NC(=O)c3cc(OCCN(C)C)ccc3C)c3ccccc3n2)cn1 [Example 19, (S)-5-(2-(dimethylamino)ethoxy)-N-(1-(2-(1-(2-methoxyethyl)-1H-pyrazol-4-yl)quinolin-4-yl)ethyl)-2-methylbenzamide]
[1]; [3]
  IC50: 1 to 5 µM
[2]; [4]
  CC50 at 2 days: > 125 µM

## CCn1ccc(-c2cc([C@@H](C)NC(=O)c3cc(OC[C@H]4CCCN4C)ccc3C)c3ccccc3n2)n1 [Example 110, N—((R)-1-(2-(1-ethyl-1H-pyrazol-3-yl)quinolin-4-yl)ethyl)-2-methyl-5-(((R)-1-methylpyrrolidin-2-yl)methoxy)benzamide]
[1]; [3]
  IC50: < 0.5 µM
[2]; [4]
  CC50 at 2 days: 46.3 ± 13.9 µM

## Cc1ccc(OCC2CN(C)C2)cc1C(=O)N[C@H](C)c1cc(-c2cnn(C)c2)nc2ccccc12 [Example 91, (R)-2-methyl-N-(1-(2-(1-methyl-1H-pyrazol-4-yl)quinolin-4-yl)ethyl)-5-((1-methylazetidin-3-yl)methoxy)benzamide]
[1]; [3]
  IC50: < 0.5 µM
[2]; [4]
  CC50 at 2 days: 96.1 ± 5.36 µM

## Cc1ccc(OCCN(C)C)cc1C(=O)N[C@H](C)c1cc(-c2ccc3c(c2)OC(F)(F)O3)nc2ccccc12 [Example 56, (R)—N-(1-(2-(2,2-difluorobenzo[d][1,3]dioxol-5-yl)quinolin-4-yl)ethyl)-5-(2-(dimethylamino)ethoxy)-2-methylbenzamid]
[1]; [3]
  IC50: < 0.5 µM
[2]; [4]
  CC50 at 2 days: 15.2 ± 7.09 µM

## Cc1ccc(OCCN(C)C)cc1C(=O)N[C@H](C)c1cc(-c2cnn(C(C)(C)C)c2)nc2ccccc12 [Example 65, (R)—N-(1-(2-(1-(tert-butyl)-1H-pyrazol-4-yl)quinolin-4-yl)ethyl)-5-(2-(dimethyl-amino)ethoxy)-2-methylbenzamide]
[1]; [3]
  IC50: < 0.5 µM
[2]; [4]
  CC50 at 2 days: 19.1 ± 2.75 µM

## Cc1ccc(NC2(C)CN(C)C2)cc1C(=O)N[C@H](C)c1cc(-c2cnn(C)c2)nc2ccccc12 [Example 94, (R)-5-((1,3-dimethylazetidin-3-yl)amino)-2-methyl-N-(1-(2-(1-methyl-1H-pyrazol-4-yl)quinolin-4-yl)ethyl)benzamide]
[1]; [3]
  IC50: 1 to 5 µM
[2]; [4]
  CC50 at 2 days: 154 µM

## Cc1ccc(OC[C@@H]2C[C@@H](F)CN2C)cc1C(=O)NC1(c2cc(-c3cnn(C)c3)nc3ccccc23)CC1 [Example 114, 5-(((2S,4R)-4-fluoro-1-methylpyrrolidin-2-yl)methoxy)-2-methyl-N-(1-(2-(1-methyl-1H-pyrazol-4-yl)quinolin-4-yl)cyclopropyl)benzamide]
[1]; [3]
  IC50: < 0.5 µM
[2]; [4]
  CC50 at 2 days: 51.3 ± 6.52 µM

## Cc1ccc(N2CC3CCC(C2)N3C)cc1C(=O)NC1(c2cc(-c3cnn(C)c3)nc3ccccc23)CC1 [Example 112, 2-methyl-N-(1-(2-(1-methyl-1H-pyrazol-4-yl)quinolin-4-yl)cyclopropyl)-5-(8-methyl-3,8-diazabicyclo[3.2.1]octan-3-yl)benzamide]
[1]
  IC50: < 0.5 µM
[2]
  CC50 at 2 days: 53.8 ± 2.52 µM

## Cc1ccc(OCCN(C)C)cc1C(=O)N[C@H](C)c1cc(-c2cnn(CC(=O)O)c2)nc2ccccc12 [Example 53, (R)-2-(4-(4-(1-(5-(2-(dimethylamino)ethoxy)-2-methylbenzamido)ethyl)quinolin-2-yl)-1H-pyrazol-1-yl)acetic acid]
[1]; [3]
  IC50: < 0.5 µM
[2]; [4]
  CC50 at 2 days: > 250 µM

## Cc1ccc(N2CC[C@@H](N(C)C)C2)cc1C(=O)N[C@H](C)c1cc(-c2cnn(C)c2)nc2ccccc12 [Example 96, 5-((R)-3-(dimethylamino)pyrrolidin-1-yl)-2-methyl-N—((R)-1-(2-(1-methyl-1H-pyrazol-4-yl)quinolin-4-yl)ethyl)benzamide]
[1]; [3]
  IC50: < 0.5 µM
[2]; [4]
  CC50 at 2 days: 28.8 µM

## Cc1ccc(OCCN(C)C)cc1C(=O)N[C@H](C)c1cc(-c2cc[nH]c(=O)c2)nc2ccccc12 [Example 54, (R)-5-(2-(dimethylamino)ethoxy)-2-methyl-N-(1-(2-(2-oxo-1,2-dihydropyridin-4-yl)quinolin-4-yl)ethyl)benzamide]
[1]; [3]
  IC50: 0.5 to 1 µM
[2]; [4]
  CC50 at 2 days: > 125 µM

## Cc1ccc(N2CCN(C)CC2)cc1C(=O)N[C@H](C)c1cc(-c2ccn(C)n2)nc2ccccc12 [Example 97, (R)-2-methyl-N-(1-(2-(1-methyl-1H-pyrazol-3-yl)quinolin-4-yl)ethyl)-5-(4-methylpiperazin-1-yl)benzamide]
[1]; [3]
  IC50: < 0.5 µM
[2]; [4]
  CC50 at 2 days: 30.7 ± 2.45 µM

## Cc1ccc(OCCN(C)C)cc1C(=O)N[C@H](C)c1cc(-c2ccn[nH]2)nc2ccccc12 [Example 15, (R)—N-(1-(2-(1H-pyrazol-5-yl)quinolin-4-yl)ethyl)-5-(2-(dimethylamino)ethoxy)-2-methylbenzamide]
[1]; [3]
  IC50: < 0.5 µM
[2]; [4]
  CC50 at 2 days: 63.2 ± 9.51 µM

## Cc1ccc(N2CCN(C)C3(CC3)C2)cc1C(=O)N[C@H](C)c1cc(-c2cnn(C)c2)nc2ccccc12 [Example 80, (R)-2-methyl-N-(1-(2-(1-methyl-1H-pyrazol-4-yl)quinolin-4-yl)ethyl)-5-(4-methyl-4,7-diazaspiro[2.5]octan-7-yl)benzamide]
[1]; [3]
  IC50: < 0.5 µM
[2]; [4]
  CC50 at 2 days: 49.7 ± 4.65 µM

## Cc1ccc(OCCN(C)C)cc1C(=O)N[C@@H](C)c1cc(-c2cnn(C(F)F)c2)nc2ccccc12 [Example 18]
[1]; [3]
  IC50: 0.5 to 1 µM
[2]; [4]
  CC50 at 2 days: 47.1 ± 6.43 µM
